From patent US9226500B2, “Pesticidal compositions and processes related thereto” (Dow AgroSciences LLC, priority 2012, dated 2016) come the findings set out here.

SMILES strings stand for the structures.

This assay relates to Beet Armyworm (Spodoptera exigua). Nature of the assay: Bioassay on Beet Armyworm (BAW), 128-well diet tray assay. The format is in vivo. The note with it: Table 3, Assays Results Part 1. The procedure:
Certain molecules disclosed in this document were tested against BAW, CEW and CL using procedures described in the following examples. In the reporting of the results, the “BAW & CEW & CL Rating Table” was used (See Table Section).
Bioassays on BAW (Spodoptera exigua)
Bioassays on BAW were conducted using a 128-well diet tray assay. One to five second instar BAW larvae were placed in each well (3 mL) of the diet tray that had been previously filled with 1 mL of artificial diet to which 50 μg/cm^2 of the test compound (dissolved in 50 μL of 90:10 acetone-water mixture) had been applied (to each of eight wells) and then allowed to dry. Trays were covered with a clear self-adhesive cover, and held at 25° C., 14:10 light-dark for five to seven days. Percent mortality was recorded for the larvae in each well; activity in the eight wells was then averaged. The results are indicated in the tables entitled “Table 3: Assay Results Part 1” and “Table 4: Assay Results Part 2” (See Table Section).
Consider `O=C(CNC(=O)c1ccc(/C=C/C(c2cc(Cl)c(Cl)c(Cl)c2)C(F)(F)F)cc1Br)NCC(F)(F)F` (centres unmarked) [AC66], for which the “BAW Rating” value was “A (50-100)”.

Turning to `O=C(NC1CSC1)c1ccc(/C=C/C(c2cc(Cl)c(F)c(Cl)c2)C(F)(F)F)cc1F` (centres unmarked) [AC67], the “BAW Rating” value was “A (50-100)”.

As to `O=C(CNC(=O)c1ccc(/C=C/C(c2cc(Cl)c(F)c(Cl)c2)C(F)(F)F)cc1F)NCC(F)(F)F` (centres unmarked) [AC68], the “BAW Rating” value is listed as “A (50-100)”.

With `Cc1cc(/C=C/C(c2cc(Cl)c(F)c(Cl)c2)C(F)(F)F)ccc1C(=O)NCC(=O)NCC(F)(F)F` (centres unmarked) [AC69], the “BAW Rating” value was “A (50-100)”.

For the compound `COc1cc(/C=C/C(c2cc(Cl)c(F)c(Cl)c2)C(F)(F)F)ccc1C(=O)NC1CSC1` (centres unmarked) [AC71], the “BAW Rating” value is “A (50-100)”.

For the compound `CCc1cc(/C=C/C(c2cc(Cl)c(F)c(Cl)c2)C(F)(F)F)ccc1C(=O)NCc1ccc(Cl)nc1` (centres unmarked) [AC72], the “BAW Rating” value is given as “A (50-100)”.

`O=C(NCc1ccc(C(F)(F)F)nc1)c1ccc(/C=C/C(c2cc(Cl)c(Cl)c(Cl)c2)C(F)(F)F)cc1Br` (centres unmarked) [AC75]: the “BAW Rating” value is “A (50-100)”.

Turning to `Cc1cc(/C=C/C(c2cc(Cl)c(F)c(Cl)c2)C(F)(F)F)ccc1C(=O)NCc1cc(Cl)ccn1` (centres unmarked) [AC77], the “BAW Rating” value is “A (50-100)”.

Take `Cc1cc(/C=C/C(c2cc(Cl)c(Cl)c(Cl)c2)C(F)(F)F)ccc1C(=O)NCC(=O)NCC(F)(F)F` (centres unmarked) [AC78]: the “BAW Rating” value is “A (50-100)”.

For the compound `O=C(CNC(=O)c1ccc(/C=C/C(c2cc(Cl)c(F)c(Cl)c2)C(F)(F)F)cc1Br)NCC(F)(F)F` (centres unmarked) [AC79, (E)-2-Bromo-4-(3-(3,5-dichloro-4-fluorophenyl)-4,4,4-trifluorobut-1-en-1-yl)-N-(2-oxo-2-((2,2,2-trifluoroethyl)amino)ethyl)benzamide], the “BAW Rating” value is “A (50-100)”.

In the case of `CCc1cc(/C=C/C(c2cc(Cl)c(F)c(Cl)c2)C(F)(F)F)ccc1C(=O)NCC(=O)NCC(F)(F)F` (centres unmarked) [AC80], the “BAW Rating” value is recorded as “A (50-100)”.

Take `Cc1cc(/C=C/C(c2cc(Cl)cc(Cl)c2)C(F)(F)F)ccc1C(=O)NCC(=O)NC1CS(=O)(=O)C1` (centres unmarked) [AC81]: the “BAW Rating” value is on record as “A (50-100)”.

For the compound `O=C(NC1CS(=O)(=O)C1)c1ccc(/C=C/C(c2cc(Cl)cc(Cl)c2)C(F)(F)F)cc1F` (centres unmarked) [AC83, (E)-4-(3-(3,5-Dichlorophenyl)-4,4,4-trifluorobut-1-en-1-yl)-N-(1,1-dioxidothietan-3-yl)-2-fluorobenzamide], the “BAW Rating” value is recorded as “A (50-100)”.

Consider `O=C(NC1CS(=O)(=O)C1)c1ccc(/C=C/C(c2cc(Cl)c(F)c(Cl)c2)C(F)(F)F)cc1F` (centres unmarked) [AC84], for which the “BAW Rating” value is “A (50-100)”.

`COc1cc(/C=C/C(c2cc(Cl)c(F)c(Cl)c2)C(F)(F)F)ccc1C(=O)NC1CS(=O)(=O)C1` (centres unmarked) [AC85]: the “BAW Rating” value is recorded as “A (50-100)”.

Take `CCc1cc(/C=C/C(c2cc(Cl)c(F)c(Cl)c2)C(F)(F)F)ccc1C(=O)NC1CS(=O)(=O)C1` (centres unmarked) [AC86]: the “BAW Rating” value is given as “A (50-100)”.

On to `O=C(NC1C[S+]([O-])C1)c1ccc(/C=C/C(c2cc(Cl)c(F)c(Cl)c2)C(F)(F)F)cc1F` (centres unmarked) [AC87], for which the “BAW Rating” value is reported as “A (50-100)”.

As for `Cc1cc(/C=C/C(c2cc(Cl)cc(Cl)c2)C(F)(F)F)ccc1C(=O)NCc1nnc(C2CC2)o1` (centres unmarked) [AC89, (E)-N-((5-Cyclopropyl-1,3,4-oxadiazol-2-yl)methyl)-4-(3-(3,5-dichlorophenyl)-4,4,4-trifluorobut-1-en-1-yl)-2-methylbenzamide], the “BAW Rating” value is “A (50-100)”.

Regarding `FC(F)(F)CNC(=S)CNC(=S)c1ccc(/C=C/C(c2cc(Cl)c(Cl)c(Cl)c2)C(F)(F)F)cc1Br` (centres unmarked) [AC90, (E)-2-Bromo-N-(2-thioxo-2-((2,2,2-trifluoroethyl)amino)ethyl)-4-(4,4,4-trifluoro-3-(3,4,5-trichlorophenyl)but-1-en-1-yl)benzothioamide], the “BAW Rating” value was “A (50-100)”.

On to `O=C(CNC(=S)c1ccc(/C=C/C(c2cc(Cl)c(Cl)c(Cl)c2)C(F)(F)F)cc1Br)NCC(F)(F)F` (centres unmarked) [AC91, (E)-2-(2-Bromo-4-(4,4,4-trifluoro-3-(3,4,5-trichlorophenyl)but-1-en-1-yl)phenylthioamido)-N-(2,2,2-trifluoroethyl)acetamide], for which the “BAW Rating” value is on record as “A (50-100)”.

Consider `Cc1cc(/C=C\C(c2cc(Cl)cc(Cl)c2)C(F)(F)F)ccc1C(=O)NCC(=O)NC1CC1` (centres unmarked) [AC93], for which the “BAW Rating” value was “A (50-100)”.

Consider `O=C(CNC(=O)c1ccc(/C=C\C(c2cc(Cl)c(Cl)c(Cl)c2)C(F)(F)F)cc1Br)NCC(F)(F)F` (centres unmarked) [AC95, (Z)-2-Bromo-N-(2-oxo-2-((2,2,2-trifluoroethyl)amino)ethyl)-4-(4,4,4-trifluoro-3-(3,4,5-trichlorophenyl)but-1-en-1-yl)benzamide], for which the “BAW Rating” value is listed as “A (50-100)”.

As to `O=C(CNC(=O)c1ccc(/C=C/C(c2cc(Cl)c(F)c(Cl)c2)C(F)(F)F)cc1[N+](=O)[O-])NCC(F)(F)F` (centres unmarked) [AC98], the “BAW Rating” value is listed as “A (50-100)”.

`O=C(CNC(=O)c1ccc(/C=C/C(c2ccc(F)c(Cl)c2)C(F)(F)F)cc1Br)NCC(F)(F)F` (centres unmarked) [AC99]: the “BAW Rating” value is given as “A (50-100)”.

As to `CC(=O)N1CCC(NC(=O)c2ccc(/C=C/C(c3cc(Cl)c(Cl)c(Cl)c3)C(F)(F)F)cc2Br)CC1` (centres unmarked) [AC103, (E)-N-(1-Acetylpiperidin-4-yl)-2-bromo-4-(4,4,4-trifluoro-3-(3,4,5-trichlorophenyl)but-1-en-1-yl)benzamide], the “BAW Rating” value is given as “A (50-100)”.

With `O=C(NC1CCN(C(=O)CC(F)(F)F)CC1)c1ccc(/C=C/C(c2cc(Cl)c(Cl)c(Cl)c2)C(F)(F)F)cc1Br` (centres unmarked) [AC104, (E)-2-Bromo-4-(4,4,4-trifluoro-3-(3,4,5-trichlorophenyl)but-1-en-1-yl)-N-(1-(3,3,3-trifluoropropanoyl)piperidin-4-yl)benzamide], the “BAW Rating” value is reported as “A (50-100)”.

`CN1CCC(NC(=O)c2ccc(/C=C/C(c3cc(Cl)c(Cl)c(Cl)c3)C(F)(F)F)cc2Br)CC1` (centres unmarked) [AC106, (E)-2-Bromo-N-(1-methylpiperidin-4-yl)-4-(4,4,4-trifluoro-3-(3,4,5-trichlorophenyl)but-1-en-1-yl)benzamide]: the “BAW Rating” value is recorded as “A (50-100)”.

With `N#CCN1CCC(NC(=O)c2ccc(/C=C/C(c3cc(Cl)c(Cl)c(Cl)c3)C(F)(F)F)cc2Br)CC1` (centres unmarked) [AC107], the “BAW Rating” value is “B (More than 0-Less than 50)”.

On to `O=C(NC1CCN(C2COC2)CC1)c1ccc(/C=C/C(c2cc(Cl)c(Cl)c(Cl)c2)C(F)(F)F)cc1Br` (centres unmarked) [AC108], for which the “BAW Rating” value is recorded as “B (More than 0-Less than 50)”.

`CONC(=O)CNC(=O)c1ccc(/C=C/C(c2cc(Cl)c(Cl)c(Cl)c2)C(F)(F)F)cc1Br` (centres unmarked) [AC110]: the “BAW Rating” value is listed as “A (50-100)”.

Take `C=CCNC(=O)CNC(=O)c1ccc(/C=C/C(c2cc(Cl)c(Cl)c(Cl)c2)C(F)(F)F)cc1Br` (centres unmarked) [AC111]: the “BAW Rating” value is “A (50-100)”.

For `O=C(NCCc1ccc(Cl)nc1)c1ccc(/C=C/C(c2cc(Cl)c(Cl)c(Cl)c2)C(F)(F)F)cc1Br` (centres unmarked) [AC113], the “BAW Rating” value was “B (More than 0-Less than 50)”.

Take `O=C(NC1CCNCC1)c1ccc(/C=C/C(c2cc(Cl)c(Cl)c(Cl)c2)C(F)(F)F)cc1Br` (centres unmarked) [AC114, (E)-2-Bromo-N-(piperidin-4-yl)-4-(4,4,4-trifluoro-3-(3,4,5-trichlorophenyl)but-1-en-1-yl)benzamide]: the “BAW Rating” value was “A (50-100)”.

Turning to `Cc1cc(/C=C/C(c2cc(Cl)cc(Cl)c2)C(F)(F)F)ccc1C(=S)NCc1ccc(Cl)nc1` (centres unmarked) [AC115, (E)-N-((6-Chloropyridin-3-yl)methyl)-4-(3-(3,5-dichlorophenyl)-4,4,4-trifluorobut-1-en-1-yl)-2-methylbenzothioamide], the “BAW Rating” value is given as “A (50-100)”.

As to `Cc1cc(/C=C/C(c2cc(Cl)cc(Cl)c2)C(F)(F)F)ccc1C(=O)N(C)Cc1ccc(Cl)nc1` (centres unmarked) [AC117], the “BAW Rating” value is recorded as “A (50-100)”.

Turning to `Cc1cc(/C=C/C(c2cc(Cl)cc(Cl)c2)C(F)(F)F)ccc1C(=O)NCC1CCCO1` (centres unmarked) [AC118], the “BAW Rating” value is “A (50-100)”.

Turning to `O=C(CC(F)(F)F)NC1CCCc2cc(/C=C/C(c3cc(Cl)c(Cl)c(Cl)c3)C(F)(F)F)ccc21` (centres unmarked) [BC5], the “BAW Rating” value is “A (50-100)”.

Consider `O=C(NC1CCc2cc(/C=C/C(c3cc(Cl)c(Cl)c(Cl)c3)C(F)(F)F)ccc21)C1CC1` (centres unmarked) [BC6], for which the “BAW Rating” value is listed as “A (50-100)”.

Turning to `O=C(NC1CCCc2cc(/C=C/C(c3cc(Cl)c(Cl)c(Cl)c3)C(F)(F)F)ccc21)C1CC1` (centres unmarked) [BC7], the “BAW Rating” value is recorded as “A (50-100)”.

In the case of `O=C(CC(F)(F)F)NC1CCc2cc(/C=C/C(c3cc(Cl)c(F)c(Cl)c3)C(F)(F)F)ccc21` (centres unmarked) [BC8], the “BAW Rating” value is on record as “A (50-100)”.

In the case of `O=C(Cc1ccc(Cl)nc1)NC1CCc2cc(/C=C/C(c3cc(Cl)c(F)c(Cl)c3)C(F)(F)F)ccc21` (centres unmarked) [BC9], the “BAW Rating” value is given as “A (50-100)”.

With `Fc1c(Cl)cc(C(/C=C/c2ccc3c(c2)CCC3NCCC(F)(F)F)C(F)(F)F)cc1Cl` (centres unmarked) [BC10, (E)-5-(3-(3,5-Dichloro-4-fluorophenyl)-4,4,4-trifluorobut-1-en-1-yl)-N-(3,3,3-trifluoropropyl)-2,3-dihydro-1H-inden-1-amine], the “BAW Rating” value is given as “A (50-100)”.

Consider `O=C(CC(F)(F)F)NCC(=O)n1ccc2cc(/C=C/C(c3cc(Cl)c(F)c(Cl)c3)C(F)(F)F)ccc21` (centres unmarked) [BC13, (E)-N-(2-(5-(3-(3,5-Dichloro-4-fluorophenyl)-4,4,4-trifluorobut-1-en-1-yl)-1H-indol-1-yl)-2-oxoethyl)-3,3,3-trifluoropropanamide], for which the “BAW Rating” value is “A (50-100)”.

As for `O=C(Cn1ncc2cc(/C=C/C(c3cc(Cl)c(F)c(Cl)c3)C(F)(F)F)ccc2c1=O)NCC(F)(F)F` (centres unmarked) [BC14, (E)-2-(6-(3-(3,5-Dichloro-4-fluorophenyl)-4,4,4-trifluorobut-1-en-1-yl)-1-oxophthalazin-2(1H)-yl)-N-(2,2,2-trifluoroethyl)acetamide], the “BAW Rating” value was “A (50-100)”.
